Experimental data reported in patent US8299081B2, “Methods for treating drug resistant cancer” (Novartis AG, priority 2005, dated 2012).
≈ marks a conversion by molar mass, not a printed value. Read-outs that look alike come from different tables or passages of the source.

Assays:
RS4;11 tumors = test: Subcutaneous RS4;11 tumor xenograft model; assay type: in vivo, SCID-NOD mice
[1] = system: advanced solid malignancies; test: Phase I dose escalating study: anti-tumor activity; assay type: in vivo, human
Procedure: (§1) Phase I dose escalating multi-center open label studies were conducted to evaluate the safety, pharmacokinetics, and pharmacodynamics of Compound 1 in subjects with advanced solid malignancies. Further primary objectives of the studies included: 1) determining the Maximum Tolerated Dose (MTD); 2) identifying Dose Limiting Toxicity (DLT); and 3) assessing safety provil in subject with advanced solid tumors. Secondary objectives of the study included: 1) evaluating pharmacokinetics; 2) evaluating pharmacodynamics in plasma, peripheral blood lymphocytes, urine, and tumor cells; 3) recommending dose and schedule for future investigations; and 4) determining evidence of anti-tumor activity (RECIST). Details regarding this study are set forth below […]

[2] = human, in vivo
Procedure: as §1

MV4;11 cells = test: Intravenous bone marrow (BM) engraftment model MV4;11; assay type: in vivo, SCID-NOD mice
Procedure: For processing of bone marrow (BM) cells from the mouse MV4;11 engraftment model, femurs were purged with cold saline and red blood cells lysed with FACS lysis buffer (Becton Dickinson). Percent engraftment of human leukemic cells in mouse BM was determined by staining with anti-human HLA-A,B,C-FITC (vs. isotype-matched antibody-FITC control) (BD Pharmingen).
[…]. […] Mice were monitored daily and were euthanized when moribund or early signs of loss of hind limb motility. Increased life span (ILS) of treated mice was calculated as a percent increase in median survival time (MST) vs. vehicle treated control mice.
. In this model, MV4;11 cells disseminate to the bone marrow (BM), pathologically mimicking a disease pattern similar to human leukemia. […]. Histological analyses and flow cytometry were used to quantify the % engraftment of MV4;11 cells in BM (FIG. 21). In flow cytometric analyses, human MV4;11 cells were identified in mouse BM with an anti-human HLA-A,B,C antibody which binds to an epitope on human MHCl. In vehicle-treated mice, approximately 2-19% of total isolated BM cells consisted of engrafted MV4;11 cells (day 51, FIG. 21-a). This was also corroborated by immunohistochemistry with an antibody to human mitochondria which stains MV4;11 cells identifying the human cells in the mouse BM matrix (FIG. 21-b,c). […].

[3] = system: KM12L4A human colon tumor xenografts; test: KM12L4A human colon tumor xenografts; assay type: in vivo, nude mice; conditions: large established tumors 500 or 1000 mm^3, dosed daily
Description: These compounds have also shown oral activity in a variety of angiogenesis tumor and metastases animal models.

pSTAT5 in MV4;11 tumors = test: Target modulation in vivo: pSTAT5 in MV4;11 tumors; conditions: Mus musculus
MV4;11 tumors = test: Subcutaneous MV4;11 tumor xenograft model; assay type: in vivo, SCID-NOD mice
[4] = set-up: species or system human; conditions: in vivo
Procedure: Phase I dose escalating multi-center open label studies were conducted to evaluate the safety, pharmacokinetics, and pharmacodynamics of Compound 1 in subjects with advanced solid malignancies. Further primary objectives of the studies included: 1) determining the Maximum Tolerated Dose (MTD); 2) identifying Dose Limiting Toxicity (DLT); and 3) assessing safety provil in subject with advanced solid tumors. Secondary objectives of the study included: 1) evaluating pharmacokinetics; 2) evaluating pharmacodynamics in plasma, peripheral blood lymphocytes, urine, and tumor cells; 3) recommending dose and schedule for future investigations; and 4) determining evidence of anti-tumor activity (RECIST). Details regarding this study are set forth below
[…]. Plasma exposure in the 100 mg dose group approaches the range where preclinical efficacy has been noted.

P-glycoprotein = P-glycoprotein (Homo sapiens, UniProt P08183); test: P-GP substrate status; assay type: in vitro ADME
[5] = system: melphalan-resistant L1210 murine leukemia cells; conditions: cited from earlier work
[6] = system: L1210 murine leukemia cells (parental line); conditions: cited from earlier work
[7] = MV4;11, 30 mg/kg/d, dose-response study
[8] = large MV4;11 tumors 300, 500 or 1000 mm^3, 30 mg/kg/d, n=27

Chain of P-glycoprotein (P08183 whole entry): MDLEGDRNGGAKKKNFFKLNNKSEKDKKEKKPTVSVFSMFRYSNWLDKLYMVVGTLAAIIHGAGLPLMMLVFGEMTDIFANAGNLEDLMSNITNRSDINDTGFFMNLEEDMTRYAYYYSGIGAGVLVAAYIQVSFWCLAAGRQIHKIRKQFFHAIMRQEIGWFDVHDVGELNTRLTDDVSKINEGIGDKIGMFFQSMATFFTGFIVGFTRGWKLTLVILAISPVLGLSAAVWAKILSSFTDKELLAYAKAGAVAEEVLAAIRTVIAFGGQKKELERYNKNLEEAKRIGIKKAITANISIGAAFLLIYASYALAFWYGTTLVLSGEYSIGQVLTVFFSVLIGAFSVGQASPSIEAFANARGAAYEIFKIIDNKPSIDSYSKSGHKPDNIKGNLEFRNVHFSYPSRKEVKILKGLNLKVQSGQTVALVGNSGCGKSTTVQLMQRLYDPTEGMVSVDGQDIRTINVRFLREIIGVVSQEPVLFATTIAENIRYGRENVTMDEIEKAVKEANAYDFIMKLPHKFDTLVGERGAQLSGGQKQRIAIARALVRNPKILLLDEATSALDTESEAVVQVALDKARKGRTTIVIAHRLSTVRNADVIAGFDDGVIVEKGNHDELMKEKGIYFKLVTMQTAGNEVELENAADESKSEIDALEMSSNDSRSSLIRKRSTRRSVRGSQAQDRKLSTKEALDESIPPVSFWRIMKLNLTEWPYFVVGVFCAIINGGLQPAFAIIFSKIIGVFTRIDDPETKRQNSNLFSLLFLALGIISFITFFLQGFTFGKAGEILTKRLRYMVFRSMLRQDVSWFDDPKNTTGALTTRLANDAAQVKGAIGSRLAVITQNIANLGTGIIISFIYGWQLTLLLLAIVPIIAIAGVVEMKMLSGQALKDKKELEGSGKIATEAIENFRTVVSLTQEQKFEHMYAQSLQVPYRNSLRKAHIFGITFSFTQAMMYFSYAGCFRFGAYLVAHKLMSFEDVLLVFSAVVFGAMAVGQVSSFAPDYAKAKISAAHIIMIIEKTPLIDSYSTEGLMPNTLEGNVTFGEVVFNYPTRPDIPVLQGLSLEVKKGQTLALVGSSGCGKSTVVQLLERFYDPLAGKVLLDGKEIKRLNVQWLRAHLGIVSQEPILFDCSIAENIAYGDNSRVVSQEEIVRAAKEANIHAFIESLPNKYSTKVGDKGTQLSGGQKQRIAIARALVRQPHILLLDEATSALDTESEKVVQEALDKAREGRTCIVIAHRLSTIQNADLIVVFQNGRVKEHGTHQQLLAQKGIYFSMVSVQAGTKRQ

In the case of `CN1CCN(c2ccc3nc(-c4c(N)c5c(F)cccc5[nH]c4=O)[nH]c3c2)CC1` [Compound 1, 4-amino-5-fluoro-3-[6-(4-methyl-piperazin-1-yl)-1H-benzimidazol-2-yl]-1H-quinolin-2-one], the TGI (RS4;11 tumors; 100 mg/kg/d, day 8) is reported as 48%, the minimum effective dose (RS4;11 tumors; day 8, p<0.01) is reported as 100 mg/kg/day and the “patients with stable disease (SD) at their first evaluation” value ([1]; 7/22 patients) is reported as 32%. For the same molecule, the “patients with SD for greater than 4 months” value ([1]; in vivo) was 4 patients, the “Anorexia, drug-related clinical adverse events ≥G2” value [2] was 2 and the “Hypertension (DLT), drug-related clinical adverse events ≥G2” value [2] was 2 (1 G3). For the same molecule, the MST (MV4;11 cells; 20 mg/kg cyclic, 7 days on/7 days off, 5 cycles) was 118 days, the “MV4;11 cells in BM (leukemic burden)” value (MV4;11 cells; 20 mg/kg daily over 25 days, flow cytometry) was under 1% and the “increased life span (ILS)” value (MV4;11 cells; 20 mg/kg daily, vs vehicle) was 163%. For the same molecule, the “treated animals with regression and/or disease stabilization” value [3] was 90-100%, the inhibition at 10 mg/kg (pSTAT5 in MV4;11 tumors; MV4-11, read-out: inhibition of STAT5 phosphorylation in tumors, 10 mg/kg/d x 5 days, 8 hour post dose (maximum)) was 90% and the inhibition at 10 mg/kg (pSTAT5 in MV4;11 tumors; MV4-11, read-out: inhibition of STAT5 phosphorylation in tumors, 10 mg/kg/d x 5 days, 24 hours) was 85%. For the same molecule, the inhibition at 10 mg/kg (pSTAT5 in MV4;11 tumors; MV4-11, read-out: inhibition of p-STAT5 in tumors, 10 mg/kg/d x 5 days, 48 hours post dose) was 60%, the “tumor growth inhibition (TGI)” value (MV4;11 tumors; MV4;11, 1 mg/kg/d oral, after 2 weeks of dosing) was 23% and the “number of CR” value (MV4;11 tumors; MV4;11, 30 mg/kg daily, schedule study) was 1. For the same molecule, the TGI (MV4;11 tumors; MV4;11, 30 mg/kg, intermittent dosage regimens) was over 94%, the “complete responders (CR)” value (MV4;11 tumors; [7]) was 1 and the “tumor responses (regression)” value (MV4;11 tumors; [7]) was 9110. For the same molecule, the “PRs durable for 40 days after cessation of dosing” value (MV4;11 tumors; MV4;11, after 50 days of 30 mg/kg/d) was “approximately 50%”, the “doses giving significant tumor growth inhibition” value (MV4;11 tumors; MV4;11 tumors) was over 5 mg/kg/day and the “minimum statistically effective dose” value (MV4;11 tumors; MV4;11 tumors, p<0.01 vs. Vehicle) was 1 mg/kg/day. For the same molecule, the complete responses (MV4;11 tumors; [8]) was 15%, the “minor responses or remained stable” value (MV4;11 tumors; [8]) was 15% and the partial responses (MV4;11 tumors; [8]) was 70%. The “time until tumor regressions were evident” value (MV4;11 tumors; large MV4;11 tumors, 30 mg/kg/d) was 3 to 5 days, the “number of CR, second cycle” value (MV4;11 tumors; ten re-grown MV4;11 tumors re-treated with 30 mg/kg/d for 60 days) was 2 and the “plasma exposure (Cmax, AUC) versus dose” value [4] was “increases proportionally with dose”. The P-GP substrate (P-glycoprotein) was “not a P-GP substrate”.

For `C=C(Br)C(=O)Nc1cc(C(=O)Nc2cc(C(=O)Nc3cc(C(=O)Nc4cc(C(=O)NCCNC(=N)N)n(C)c4)n(C)c3)n(C)c2)n(C)c1` [Brostallicin], the “higher activity in melphalan-resistant L1210 than in the parental line” value [5] is given as 3 fold, the IC50 ([5]; melphalan-resistant L1210) is given as 0.46 ng/mL (≈ 0.636 nM) and the IC50 [6] is given as 1.45 ng/mL (≈ 2 nM).
